Entries after “also recorded” stand apart in the source; their conditions may differ.
Legend:
[1] = Thermal cycling of remineralized dentin samples in artificial saliva, SEM; design: species or system human; conditions: 3 rounds remineralized, 2,500 cycles (90 days) between 5 C and 50 C
Experimental: To ensure the thermal durability of the newly formed mineral layer on the dentin surface, thermal cycling tests were conducted on remineralized samples. After three rounds of peptide-guided remineralization, the sample was placed in a vial containing an artificial saliva solution consisting of 130 mM KCl, 20 mM HEPES, 1.5 mM CaCl2, 0.9 mM KH2PO4, and 1 mM NaCl. In order to mimic the temperature changes in the natural oral environment, the remineralized sample was cycled between 5 C and 50 C, holding for 30 seconds at each temperature. SEM images were taken of the mineral layer after 200 cycles (6 days) and 2,500 cycles (90 days) to compare the effects of thermal cycling at different time periods.

[2] = Fluoride delivery to tooth surface, EDXS of mineral layer; conditions: tooth surface treated with shADP5, then ionic fluoride (1100 ppm) delivered with ionic PO4
Experimental: shADP5 enables the delivery of ionic fluoride delivery to the tooth surface. After the tooth surface was treated shADP5, ionic fluoride was delivered with ionic PO4.

[3] = Visual observation of diffusion and mineralization reaction of calcium and phosphate gels on glass slide; format: physicochemical; conditions: gel formulation, calcium and phosphate gel drops on glass slide
Text: Active ingredients stored separately in their respective gel/varnish/toothpaste formulations is important in preventing premature mineralization reactions. In all formulations, the peptide is to be delivered first, then the ionic calcium/phosphate or ionic calcium/phosphate/fluoride are delivered second. Understanding the reaction time is useful to characterize the prescribed treatment time and procedure. To inform treatment protocol, an experiment was designed in which two drops of gels containing calcium and phosphate were mixed with peptide gel and placed next each other on a glass slide close enough that upon subsequent spreading of the two droplets, they would come to contact with each other at their respective edges. Mineralization reactions were monitored visually be observing parts of the gels turning from clear (unreacted) to white (reacted).
Then the inverses of both quantities were taken to enable the determination of the diffusion constant based on the following equation: 1/t=D (1/x), where t is time, x is the width of reacted mineral (appear as white in FIG. 18) and D is the diffusion constant in units of mm/min. Shown in FIG. 19 is an example of the derived diffusion constants.

Row | Sequence | mineral layer after thermal cycling [1] | fluoride in the mineral layer (EDXS) [2] | extent of mineralization reaction versus without peptide [3]
1 | SYEKSHSQAINTDRT [sADP5, shortened amelogenin derived peptide 5] | still present; also recorded: thermally stable | – | –
2 | SYENSHSQAINVDRT [shADP5] | – | incorporated | more extensive
